Results taken from patent publication US8354443B2, “Cyclopropane indolinone derivatives” (Hoffmann-La Roche Inc., priority 2009, dated 2013).

Test system: recombinant AMPK proteins (α1β1γ1, α2β1γ1, α1(1-335), α1(1-394) or α2(1-394))
Assay: Scintillation Proximity Assay (AMPK activation)
Assay type: biochemical, human
Conditions: effective concentration of activator for 50% of maximal enzyme activity; 2 hr at 30° C.; AMPK form not specified
Method in brief: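 Pre-phosphorylated recombinant human AMPK (α1β1γ1, α2β1γ1, α1(1-335), α1(1-394) or α2(1-394)), 50 nM, incubated 2 hr at 30° C with 2 μM biotin-SAMS, 2 μM ATP plus [γ-33P]ATP, pH 7.5, and varying activator. Product detected by streptavidin SPA beads; EC50 is activator concentration giving 50% of maximal enzyme activity.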

SMILES	EC50 [nM]
CS(=O)(=O)NC(=O)c1cccc(N2C(=O)[C@]3(C[C@@H]3c3ccc(Cl)cc3)c3ccccc32)c1 (racemic) [Example 132, (1S,2R) and (1R,2S)-3-(2-(4-chlorophenyl)-2′-oxospiro[cyclopropane-1,3′-indoline]-1′-yl)-N-(methylsulfonyl)benzamide]	1550
O=C(O)c1cn(CCN2C(=O)[C@]3(C[C@H]3c3ccc(Cl)cc3)c3ccccc32)cn1 (racemic) [Example 82, (1S,2S) and (1R,2R)-1-(2-(2-(4-chlorophenyl)-2′-oxospiro[cyclopropane-1,3′-indoline]-1′-yl)ethyl)-1H-imidazole-4-carboxylic acid]	4030
O=C1N(Cc2ccncc2)c2ccccc2[C@]12C[C@H]2c1ccc(Cl)cc1 (racemic) [Example 78, (1R,2S) and (1S,2R)-2-(4-chlorophenyl)-1′-(pyridin-4-ylmethyl)spiro[cyclopropane-1,3′-indolin]-2′-one]	4200
COc1ccc([C@@H]2C[C@]23C(=O)N(Cc2cccc(C(=O)O)c2)c2ccccc23)cc1 (racemic) [Example 20, (1S,2S) and (1R,2R)-3-((2-(4-methoxyphenyl)-2′-oxospiro[cyclopropane-1,3′-indoline]-1′-yl)methyl)benzoic acid]	900
